Data taken from paper PMC7939474 (The Journal of Biological Chemistry, 2021).

Molecular target: T1, VcINDY WT (Vibrio cholerae, UniProt Q9KNE0)
T1 construct: gene VC_A0025
Assay: biochemical

O=C(O)CCC(=O)O [succinate]
Kd: 4.3 ± 1.5 mM
